Data published in PMC6479731 (ACS Synthetic Biology, 2019).

System: Cn Mdh2 CT4–1
Settings: read-out: Km,MeOH; 1 mM NAD+, 100 mM glycine-NaOH pH 9.5, 50 mM MgSO4, 37 °C, no activator protein

CO [methanol]
Km: 88.8 ± 7.8 mM
